In US20260193642A1, “DIRECT MEASUREMENT OF ENGINEERED CANCER MUTATIONS AND THEIR TRANSCRIPTIONAL PHENOTYPES IN SINGLE CELLS” (The Board of Trustees of the Leland Stanford Junior …, priority 2022, published 2026) one finds cell cycle arrest and p53 pathway activation data, which are given here for 1 compound.

Experiment [1] deals with HCT116 cells. In words: Cell cycle analysis, EdU and propidium iodide flow cytometry assay. The format is cell-based, human. Particulars: 24 hrs nutlin-3a treatment. The method, then: Cell cycle analysis: Click-iT™ Plus EdU Alexa Fluor™ 488 Flow Cytometry Assay Kit (Life technologies) was used according to manufacturer's protocol. Briefly, cells were plated a day prior to nutlin-3a or vehicle treatment. After 24 hrs of chemical treatment, cells in S-phase were labeled with […] EdU solution for 2 hrs. FxCycle™ PI/RNase Staining Solution (Life technologies) was used for PI staining. After the staining, cells were analyzed by NovoCyte Quanteon Flow Cytometer Systems (Agilent, Santa Clara, CA, USA).
The PI assay detects total DNA amounts for G1 and G2-phase comparison. The EdU assay labels newly synthesized DNA to detect S-phase.
In general terms: Flow cytometry measures light scatter and fluorescence of single cells or particles in a stream.

Experiment [2] has as its system p53 pathway. Particulars: U2OS cells (wild-type TP53); 10 μM nutlin-3a; 5 μM, 10 μM and 20 μM tested.
Text: Cell culture conditions: HEK293T (ATCC CRL-11268) and MMNK-1 (JCRB1554) cells were maintained in Dulbecco's modified Eagle's medium (DMEM) with 10% fetal bovine serum (FBS). HCT116 (ATCC CCL-247) cells and U2OS (ATCC HTB-96) were maintained in McCoy's 5A modified medium supplemented with 10% FBS. […] K562 (ATCC CCL-243) cells were maintained in RPMI 1640 with 10% FBS. Cells were authenticated by STR profiling. All cell lines were confirmed by PCR to be free of mycoplasma contamination.
HCT116 and U2OS human cell lines were used for this study. Both cell lines have wild-type TP53 which was independently confirmed.

As to `COc1ccc(C2=N[C@@H](c3ccc(Cl)cc3)[C@@H](c3ccc(Cl)cc3)N2C(=O)N2CCNC(=O)C2)c(OC(C)C)c1` [nutlin-3a], the cell cycle arrest result in experiment [1] (HCT116 clonal cells with TP53 I195T mutation, FIG. 4C, P=0.95) is reported as “did not undergo arrest”; in experiment [1] (HCT116 clonal cells with TP53 Y220C mutation, FIG. 4C, P=0.95) it was “did not undergo arrest”; in experiment [1] (wild-type HCT116 cells, FIG. 4c, P<2.2e-16), “arrested”. In addition, the p53 pathway activation entry in experiment [2] is reported as “successful p53 pathway activation”.
